The values below come from patent US10370433B2, “Compositions and methods for diagnosis and treatment of cancer” (BIONTECH AG, priority 2015, dated 2019).

Positions of bridges follow the written chain, without caps; N, C: chain ends. Residues, ends and D or L forms follow the SMILES beside them.

In this test the target is T1, recombinant human Seprase (rhuSeprase) (Homo sapiens, UniProt Q12884).
T1 construct: named pCEP4-IgKappa-huSeprase-coCHO_26-760aa-H6 and used for the generation of recombinant soluble human Seprase (rhuSeprase); mouse Ig kappa-chain V-J2-C secretion signal (N, cleaved yes); made in house; host or cells: FreeStyle CHO-S cells (transient transfection; purified from supernatant by Ni-chelate and SEC)
T1 sequence (Q12884 26-760): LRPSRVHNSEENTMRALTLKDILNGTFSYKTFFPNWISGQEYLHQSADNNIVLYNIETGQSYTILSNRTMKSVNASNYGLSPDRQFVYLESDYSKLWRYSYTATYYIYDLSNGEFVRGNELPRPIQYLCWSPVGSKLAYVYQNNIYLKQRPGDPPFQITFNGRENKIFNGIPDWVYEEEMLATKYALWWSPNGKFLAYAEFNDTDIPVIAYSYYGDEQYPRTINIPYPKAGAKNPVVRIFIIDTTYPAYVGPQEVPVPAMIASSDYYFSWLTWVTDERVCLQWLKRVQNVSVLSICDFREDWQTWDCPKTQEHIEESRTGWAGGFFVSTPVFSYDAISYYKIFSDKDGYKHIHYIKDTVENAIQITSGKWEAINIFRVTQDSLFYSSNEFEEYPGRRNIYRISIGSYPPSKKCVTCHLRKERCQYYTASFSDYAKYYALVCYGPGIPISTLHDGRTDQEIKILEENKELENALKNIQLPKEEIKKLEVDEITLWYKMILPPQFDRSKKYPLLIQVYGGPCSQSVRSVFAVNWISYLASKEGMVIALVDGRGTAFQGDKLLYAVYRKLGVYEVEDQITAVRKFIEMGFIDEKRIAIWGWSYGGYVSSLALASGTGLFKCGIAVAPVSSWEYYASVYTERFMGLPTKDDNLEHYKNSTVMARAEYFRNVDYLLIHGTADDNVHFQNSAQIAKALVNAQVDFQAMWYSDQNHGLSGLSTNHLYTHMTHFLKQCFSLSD
The experiment in a line: Surface plasmon resonance (Biacore T100) on immobilized rhuSeprase. It is filed as binding. As to conditions: for kon: read-out: ka (1/Ms). A general note: Surface plasmon resonance follows binding to a sensor surface in real time, without labels.

Take `CC[C@H](C)[C@@H]1NC(=O)[C@@H]2CSSC[C@H](NC(=O)[C@H](C)NC(=O)CNC(=O)[C@H](CO)NC(=O)CNC(=O)CON=CC(=O)NCCCC[C@H](NC(=O)[C@H](CO)NC(=O)CNC(=O)[C@H](CO)NC(=O)CNC(=O)[C@H](CCCCNC(=O)C=NOCC(=O)NCC(=O)N[C@@H](CO)C(=O)NCC(=O)N[C@@H](C)C(=O)N[C@H]3CSSC[C@@H]4NC(=O)[C@H](CCCNC(=N)N)NC(=O)CNC(=O)[C@@H]5CCCN5C(=O)[C@@H]5CSSC[C@@H](C(=O)NCC(=O)O)NC(=O)[C@H](Cc6ccc(O)cc6)NC(=O)CNC(=O)[C@H](CC(N)=O)NC(=O)CNC(=O)[C@H](CCCNC(=N)N)NC(=O)[C@H](CSSC[C@H](NC(=O)[C@H](CC(=O)O)NC(=O)[C@@H]6CCCN6C(=O)CNC(=O)[C@H](CCCNC(=N)N)NC(=O)CNC(=O)[C@@H]6CCCN6C(=O)[C@H]([C@@H](C)O)NC(=O)[C@H](Cc6c[nH]c7ccccc67)NC(=O)[C@H](CC(N)=O)NC(=O)[C@H](CO)NC(=O)[C@H](Cc6ccc(O)cc6)NC(=O)[C@@H]6CCCN6C3=O)C(=O)N[C@@H](CCCNC(=N)N)C(=O)N[C@@H](CCCNC(=N)N)C(=O)N[C@@H](CC(=O)O)C(=O)N[C@@H](CO)C(=O)N[C@@H](CC(=O)O)C(=O)N5)NC(=O)[C@H]([C@@H](C)CC)NC4=O)NC(=O)[C@H](CO)NC(=O)CNC(=O)[C@H](CO)NC(=O)CNC(=O)[C@H](CCCCNC(=O)C=NOCC(=O)NCC(=O)N[C@@H](CO)C(=O)NCC(=O)N[C@@H](C)C(=O)N[C@H]3CSSC[C@@H]4NC(=O)[C@H](CCCNC(=N)N)NC(=O)CNC(=O)[C@@H]5CCCN5C(=O)[C@@H]5CSSC[C@@H](C(=O)NCC(=O)O)NC(=O)[C@H](Cc6ccc(O)cc6)NC(=O)CNC(=O)[C@H](CC(N)=O)NC(=O)CNC(=O)[C@H](CCCNC(=N)N)NC(=O)[C@H](CSSC[C@H](NC(=O)[C@H](CC(=O)O)NC(=O)[C@@H]6CCCN6C(=O)CNC(=O)[C@H](CCCNC(=N)N)NC(=O)CNC(=O)[C@@H]6CCCN6C(=O)[C@H]([C@@H](C)O)NC(=O)[C@H](Cc6c[nH]c7ccccc67)NC(=O)[C@H](CC(N)=O)NC(=O)[C@H](CO)NC(=O)[C@H](Cc6ccc(O)cc6)NC(=O)[C@@H]6CCCN6C3=O)C(=O)N[C@@H](CCCNC(=N)N)C(=O)N[C@@H](CCCNC(=N)N)C(=O)N[C@@H](CC(=O)O)C(=O)N[C@@H](CO)C(=O)N[C@@H](CC(=O)O)C(=O)N5)NC(=O)[C@H]([C@@H](C)CC)NC4=O)NC(=O)[C@H](CO)NC(=O)CNC(=O)[C@H](CO)NC(=O)CNC(=O)CN3CCN(CC(=O)O)CCN(CC(=O)O)CCN(CC(=O)O)CC3)C(=O)O)C(=O)N3CCC[C@H]3C(=O)N[C@@H](Cc3ccc(O)cc3)C(=O)N[C@@H](CO)C(=O)N[C@@H](CC(N)=O)C(=O)N[C@@H](Cc3c[nH]c4ccccc34)C(=O)N[C@@H]([C@@H](C)O)C(=O)N3CCC[C@H]3C(=O)NCC(=O)N[C@@H](CCCNC(=N)N)C(=O)NCC(=O)N3CCC[C@H]3C(=O)N[C@@H](CC(=O)O)C(=O)N[C@H]3CSSC[C@H](NC1=O)C(=O)N[C@@H](CCCNC(=N)N)C(=O)NCC(=O)N[C@@H](CC(N)=O)C(=O)NCC(=O)N[C@@H](Cc1ccc(O)cc1)C(=O)N[C@H](C(=O)NCC(=O)O)CSSC[C@H](NC(=O)[C@H](CC(=O)O)NC(=O)[C@H](CO)NC(=O)[C@H](CC(=O)O)NC(=O)[C@H](CCCNC(=N)N)NC(=O)[C@H](CCCNC(=N)N)NC3=O)C(=O)N1CCC[C@H]1C(=O)NCC(=O)N[C@@H](CCCNC(=N)N)C(=O)N2` (single isomer, unassigned) [DOTA-(MC-FA-012)3]: the “offrate, times slower compared to MC-FA-012” value is reported as “around 530 times” and the kon was 2.11e+07 M⁻¹ s⁻¹.
For the compound `CC(C)C[C@@H]1NC(=O)[C@@H]2CSSC[C@@H](C(=O)NCC(=O)O)NC(=O)[C@H](Cc3ccccc3)NC(=O)CNC(=O)[C@H](CC(N)=O)NC(=O)[C@@H]3CCCN3C(=O)CNC(=O)[C@@H]3CSSC[C@H](NC(=O)[C@H](CC(=O)O)NC(=O)[C@@H]4CCCN4C(=O)CNC(=O)[C@H](CCCNC(=N)N)NC(=O)CNC(=O)[C@@H]4CCCN4C(=O)[C@H]([C@@H](C)O)NC(=O)[C@H](Cc4c[nH]c5ccccc45)NC(=O)[C@H](CC(N)=O)NC(=O)[C@H](CO)NC(=O)[C@H](Cc4ccc(O)cc4)NC(=O)[C@@H]4CCCN4C(=O)[C@@H](NC(=O)[C@H](C)NC(=O)CNC(=O)[C@H](CO)NC(=O)CN)CSSC[C@H](NC(=O)CNC(=O)[C@H](C)NC1=O)C(=O)N[C@@H](C(C)C)C(=O)N3)C(=O)N[C@@H](CO)C(=O)N[C@@H](CCC(N)=O)C(=O)N[C@@H](CC(=O)O)C(=O)N[C@@H](CO)C(=O)N[C@@H](CC(=O)O)C(=O)N2` [ET-FA-012] (H-GSGACPYSNWTPGRGPDCSQDSDCLAGCVCGPNGFCG-OH; disulfide 5-28, 18-30, 24-36; N-terminus and C-terminus assumed), the “kd” value was found to be 0.8528 s⁻¹ and the kon is 608000 M⁻¹ s⁻¹.
Regarding `CC[C@H](C)[C@@H]1NC(=O)[C@@H]2CSSC[C@H](NC(=O)[C@H](C)NC(=O)CNC(=O)[C@H](CO)NC(=O)CN)C(=O)N3CCC[C@H]3C(=O)N[C@@H](Cc3ccc(O)cc3)C(=O)N[C@@H](CO)C(=O)N[C@@H](CCCNC(=N)N)C(=O)N[C@@H](Cc3c[nH]c4ccccc34)C(=O)N[C@@H](CCSC)C(=O)N3CCC[C@H]3C(=O)NCC(=O)N[C@@H](CCCNC(=N)N)C(=O)NCC(=O)N3CCC[C@H]3C(=O)N[C@@H](CO)C(=O)N[C@H]3CSSC[C@H](NC1=O)C(=O)N[C@@H](CCCNC(=N)N)C(=O)NCC(=O)N[C@@H](CC(N)=O)C(=O)NCC(=O)N[C@@H](Cc1ccc(O)cc1)C(=O)N[C@H](C(=O)NCC(=O)O)CSSC[C@H](NC(=O)[C@H](CC(=O)O)NC(=O)[C@H](CO)NC(=O)[C@H](CC(=O)O)NC(=O)[C@H](CCCNC(=N)N)NC(=O)[C@H](CCCNC(=N)N)NC3=O)C(=O)N1CCC[C@H]1C(=O)NCC(=O)N[C@@H](CCCNC(=N)N)C(=O)N2` [FA7-A05] (H-GSGACPYSRWMPGRGPSCRRDSDCPGRCICRGNGYCG-OH; disulfide 5-28, 18-30, 24-36; N-terminus and C-terminus assumed), the “kd” value was determined as 0.05035 s⁻¹ and the kon came to 246000 M⁻¹ s⁻¹.
On the same counts, the results for `CC[C@H](C)[C@@H]1NC(=O)[C@@H]2CSSC[C@H](NC(=O)[C@H](C)NC(=O)CNC(=O)[C@H](CO)NC(=O)CN)C(=O)N3CCC[C@H]3C(=O)N[C@@H](Cc3ccc(O)cc3)C(=O)N[C@@H]([C@@H](C)O)C(=O)N[C@@H](CC(N)=O)C(=O)N[C@@H](Cc3c[nH]c4ccccc34)C(=O)N[C@@H](CCCNC(=N)N)C(=O)N3CCC[C@H]3C(=O)NCC(=O)N[C@@H](CCCNC(=N)N)C(=O)NCC(=O)N3CCC[C@H]3C(=O)N[C@@H](C)C(=O)N[C@H]3CSSC[C@H](NC1=O)C(=O)N[C@@H](CCCNC(=N)N)C(=O)NCC(=O)N[C@@H](CC(N)=O)C(=O)NCC(=O)N[C@@H](Cc1ccc(O)cc1)C(=O)N[C@H](C(=O)NCC(=O)O)CSSC[C@H](NC(=O)[C@H](CC(=O)O)NC(=O)[C@H](CO)NC(=O)[C@H](CC(=O)O)NC(=O)[C@H](CCCNC(=N)N)NC(=O)[C@H](CCCNC(=N)N)NC3=O)C(=O)N1CCC[C@H]1C(=O)NCC(=O)N[C@@H](CCCNC(=N)N)C(=O)N2` [FA8-C09] (H-GSGACPYTNWRPGRGPACRRDSDCPGRCICRGNGYCG-OH; disulfide 5-28, 18-30, 24-36; N-terminus and C-terminus assumed) are 2.935 s⁻¹ and 9.92e+06 M⁻¹ s⁻¹.
Turning to `CC[C@H](C)[C@@H]1NC(=O)[C@@H]2CSSC[C@H](NC(=O)[C@H](C)NC(=O)CNC(=O)[C@H](CO)NC(=O)CN)C(=O)N3CCC[C@H]3C(=O)N[C@@H](Cc3ccc(O)cc3)C(=O)N[C@@H]([C@@H](C)O)C(=O)N[C@@H](CCCNC(=N)N)C(=O)N[C@@H](Cc3c[nH]c4ccccc34)C(=O)N[C@@H](C)C(=O)N[C@@H](C(C)C)C(=O)NCC(=O)N[C@@H](CCCNC(=N)N)C(=O)NCC(=O)N3CCC[C@H]3C(=O)N[C@@H](CC(=O)O)C(=O)N[C@H]3CSSC[C@H](NC1=O)C(=O)N[C@@H](CCCNC(=N)N)C(=O)NCC(=O)N[C@@H](CC(N)=O)C(=O)NCC(=O)N[C@@H](Cc1ccc(O)cc1)C(=O)N[C@H](C(=O)NCC(=O)O)CSSC[C@H](NC(=O)[C@H](CC(=O)O)NC(=O)[C@H](CO)NC(=O)[C@H](CC(=O)O)NC(=O)[C@H](CCCNC(=N)N)NC(=O)[C@H](CCCNC(=N)N)NC3=O)C(=O)N1CCC[C@H]1C(=O)NCC(=O)N[C@@H](CCCNC(=N)N)C(=O)N2` [FA8-D03] (H-GSGACPYTRWAVGRGPDCRRDSDCPGRCICRGNGYCG-OH; disulfide 5-28, 18-30, 24-36; N-terminus and C-terminus assumed), the “kd” value was 0.1381 s⁻¹ and the kon came to 939000 M⁻¹ s⁻¹.
